Experimental data as given in patent US12201610B2, “Compositions comprising aticaprant” (Janssen Pharmaceuticals, Inc., priority 2022, dated 2025).

Columns and labels:
[1] = tested on: subjects with MDD; test: HAM-A6 total score (Example 6); type: in vivo, human; settings: 10 mg; Treatment Week 6; 59 subjects analyzed
Description: v. To investigate the effect of aticaprant on symptoms of anxiety using the HAM-A and on core symptoms of anxiety using the HAM-A6 subscale.
• (i) Depression: Montgomery-Åsberg Depression Rating Scale (MADRS), Clinical Global Impression-Severity (CGI-S), Symptoms of Major Depressive Disorder Scale (SMDDS), and Self-assessment of treatment experience (SATE) • (ii) Anhedonia: Snaith-Hamilton Pleasure Scale (SHAPS) • (iii) Anxiety: Structured Interview Guide for the Hamilton Anxiety scale (SIGH-A) and HAM-A6 • (iv) Effects on Cognition: The Cognitive and Physical Functioning Questionnaire (CPFQ) • (v) Safety assessments

[2] = tested on: subjects with MDD; test: CGI-S total score (Example 6); type: in vivo, human; settings: 10 mg; 59 subjects analyzed; 'at Treatment' (week not given)
Description: CGI-S is a scale that rates the severity of the subject's illness at the time of assessment, relative to the clinician's past experience with subjects who have the same diagnosis and improvement with treatment. CGI-S provides an overall clinician-determined summary measure of severity of subject's illness that considers all available information, including knowledge of subject's history, psychosocial circumstances, symptoms, behavior, and impact of symptoms on subject's ability to function. CGI-S evaluates severity of psychopathology on scale of 0 to 7. Subject is assessed on severity of mental illness at time of rating according to: 0=not assessed; 1=normal (not at all ill); 2=borderline mentally ill; 3=mildly ill; 4=moderately ill; 5=markedly ill; 6=severely ill; 7=among most extremely ill patients.
iv. To investigate the effect of aticaprant on symptoms of depression using the Clinical Global Impression-Severity (CGI-S), the patient reported Symptoms of Major Depressive Disorder Scale (SMDDS) and the self-assessment of treatment experience (SATE). […]

`Cc1cc(C)cc(C2CCCN2Cc2ccc(Oc3ccc(C(N)=O)cc3F)cc2)c1` (centres unmarked) [aticaprant, 3-fluoro-4-4-2-(3,5-dimethylphenyl)pyrrolidin-1-yl-methylphenoxybenzamide] was tested, and the “Change from Treatment Baseline in HAM-A6 Total Score, Arithmetic Mean (SD)” value [1] was −2.73 ± 2.651 scores on a scale and the “Change from Treatment Baseline in CGI-S Total Score, Arithmetic Mean (SD)” value [2] was −0.92 ± 1.039 Scores on a scale.
